Test results from publication PMC11373361, “Expanding the inhibitor space of the WWP1 and WWP2 HECT E3 ligases” (Journal of Enzyme Inhibition and Medicinal Chemistry, 2024).
“And” between values parts separate entries of the source, which are not always exact repeats. Equal values may be shown once. One block for each compound: values may come before it.

Experiments:
[1] = target: T1, WWP2-FL (Homo sapiens, UniProt O00308); assay: WWP2 ELISA autoubiquitination assay; format: biochemical; settings: for relative activity, single-shot autoubiquitination: 1 mM compound, hit threshold less than 50% relative activity; for relative autoubiquitination activity, single-shot: 500 µM compound, normalised to 0% and 100% controls
T1 construct: full-length WWP2 (WWP2-FL); made in house; host or cells: E. coli BL21-CodonPlus RP (plasmid pGEX2T-WWP2-FL, Dr Andrew Chantry's Lab)
T1 sequence (O00308 whole entry): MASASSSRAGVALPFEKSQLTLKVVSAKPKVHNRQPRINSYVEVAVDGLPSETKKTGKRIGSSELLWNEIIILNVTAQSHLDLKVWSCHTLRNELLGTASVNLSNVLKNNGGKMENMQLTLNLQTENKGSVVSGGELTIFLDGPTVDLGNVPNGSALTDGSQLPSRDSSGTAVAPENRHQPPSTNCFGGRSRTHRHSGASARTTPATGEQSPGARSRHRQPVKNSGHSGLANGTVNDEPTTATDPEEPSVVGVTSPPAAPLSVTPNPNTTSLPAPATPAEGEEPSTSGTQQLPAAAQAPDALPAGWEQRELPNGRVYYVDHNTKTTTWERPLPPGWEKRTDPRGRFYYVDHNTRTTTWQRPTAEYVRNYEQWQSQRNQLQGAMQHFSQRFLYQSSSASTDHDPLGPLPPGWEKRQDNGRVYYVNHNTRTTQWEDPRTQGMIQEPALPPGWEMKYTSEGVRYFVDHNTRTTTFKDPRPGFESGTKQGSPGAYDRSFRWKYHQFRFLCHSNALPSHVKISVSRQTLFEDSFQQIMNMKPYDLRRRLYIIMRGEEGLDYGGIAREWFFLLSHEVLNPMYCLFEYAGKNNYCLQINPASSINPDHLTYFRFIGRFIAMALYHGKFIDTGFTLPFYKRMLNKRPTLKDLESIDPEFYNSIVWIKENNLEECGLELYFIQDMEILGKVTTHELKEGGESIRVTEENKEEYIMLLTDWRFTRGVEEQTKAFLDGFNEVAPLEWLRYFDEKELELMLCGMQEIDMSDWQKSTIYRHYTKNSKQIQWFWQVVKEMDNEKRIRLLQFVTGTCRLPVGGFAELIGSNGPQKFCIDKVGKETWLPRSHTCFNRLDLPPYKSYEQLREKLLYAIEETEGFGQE
Procedure: (§1) Cell lysate containing His-tagged WWP1-L34H or GST-tagged WWP2-FL proteins were incubated on either 96-well Clear Pierce glutathione or nickel-coated plates for 1 h in PBS. Reaction mixtures of either 3 ng/well GST-Uba1 and 15 ng/well UbcH7 or 10 ng/well His-Uba1 and 150 ng/well His-UbcH7 were incubated together in 25 mM Tris pH 8.0, 100 mM NaCl, 4 mM MgCl2 containing 60 ng/well FLAG-ubiquitin and 1.25 mM ATP for 40 min. A prior 1% BSA plate blocking step is required for nickel-coated plates. After plate washing, 2 μL of the compound was added at the desired concentration (0.1 – 1% DMSO) followed by 18 μL of the reaction mixture. This was then incubated for 2 h with 0% and 100% controls before 100 μL of anti-FLAG M2-Peroxidase HRP (1: 10,000 PBST) was added to each well and incubated for 1 h. Finally, 100 μL of 1 × TMB substrate solution (Invitrogen) was added to each well and incubated for up to 10 min until sufficient blue colour change was observed. To stop the reaction, 100 μL of 1 M HCl was added. GST-tagged Uba1 counter-assay followed a similar protocol first incubating cell lysate for 1 h before adding 20 µL of reaction mixture containing 60 ng/well FLAG-ubiquitin, 1.25 mM ATP, and 1 mM compound at 1% DMSO. His-tagged UbcH7 counter-assays preincubated 3 ng/well GST-Uba1 and 200 ng/well UbcH7 with the reaction mixture components (60 ng/well FLAG-ubiquitin, 1.25 mM ATP, and 1 mM compound at 1% DMSO) for 1 h before incubating onto nickel-coated plates for a further 1 h. All other steps were followed. The plates were washed three times with PBST (and 15 mM Imidazole) between each step. Quantification was measured by absorbance read at 450 nm, standardised to the 0% and 100% activity controls. A visual representation of the assay steps is shown in SI Figure S13. All assay optimisations have been previously reported by Watt and colleagues. IC50 non-linear regression curves were calculated in GraphPad v10.2 (Prism).
(§2) The DSF hit compounds were initially screened using a single-shot WWP1 and WWP2 ELISA autoubiquitination assay at 500 µM compound (1% DMSO), measuring inhibition against their relative autoubiquitination activity following protocols previously described. […] Four NSC compounds for WWP1 (13151, 73735, 85433 & 637578) and three NSC compounds for WWP2 (26112, 57103 & 217913) were initially selected having a threshold of less than 50% relative activity when compared to 0% and 100% controls (Figure 2).
(§3) The resulting synthesised analogues were screened using the single-shot ELISA autoubiquitination assay at 1 mM compound concentration (1% DMSO) before IC50 values were calculated for hit compounds (SI Figure 2–4).
ELISA Autoubiquitination Assay
Figure S13. Schematic diagram of the WWP2 ELISA autoubiquitination assay. (1a) Immobilisation of GST-Tagged WWP2 on glutathione coated plates. The GST-tagged (green) WWP2-FL (orange) is bound to glutathione (black), further linked via an SSMPB linker (pink) bound to haemoglobin (red). (1b) Reaction mixture of His-E1, His-E2 and flag-tagged Ub. Flag-tagged (red) Ub (dark pink) is first charged to Uba1/E1 (light pink) using ATP (blue) and then transferred to UbcH7/E2 (light brown).
(2) Ub charged E2 incubation with immobilised WWP2. UbcH7/E2 transfers flag-tagged Ub to WWP2 before WWP2 auto-ubiquitination occurs in the absence or presence of compounds (blue). (3) Incubation of recombinant HRP anti-flag antibody with auto-ubiquitinated WWP2. Anti-flag antibody (purple) containing recombinant HRP (orange) associates with the flag-tagged Ub. (4) HRP-mediated oxidation of TMB.
Single-electron oxidation of TMB by HRP in the presence of HO creates first a blue colour change, before acidification results in a yellow colour change (450 nm) stopping

[2] = target: T2, WWP1-L34H (Homo sapiens, UniProt Q9H0M0); assay: WWP1 ELISA autoubiquitination assay; format: biochemical; settings: for relative activity, single-shot autoubiquitination: 1 mM compound, hit threshold less than 50% relative activity; for relative autoubiquitination activity, single-shot: 500 µM compound, normalised to 0% and 100% controls
T2 construct: WWP1- 2,3-linker-WW3-WW4-HECT (WWP1-L34H); made in house; host or cells: E. coli BL21-CodonPlus RP (plasmid pET32a-WWP1-L34H, gifted by Dr Wenyu Wen)
Procedure: as §1, §2, §3

[3] = target: T3, UbcH7 (Homo sapiens, UniProt P68036); assay: UbcH7 counter autoubiquitination assay; format: biochemical; settings: 1 mM compound, 1% DMSO, in Table S6 73735 and 217913 synthesised
T3 construct: made in house; host or cells: E. coli BL21-CodonPlus RP (plasmid pET3a-UbcH7 His, gifted by Professor Martin Scheffner)
T3 sequence (P68036 whole entry): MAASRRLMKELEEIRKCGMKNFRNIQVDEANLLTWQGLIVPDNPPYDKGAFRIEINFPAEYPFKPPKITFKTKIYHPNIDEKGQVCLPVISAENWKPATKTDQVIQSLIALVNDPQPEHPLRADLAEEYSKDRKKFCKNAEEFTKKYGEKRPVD
Procedure: as §1
These preliminary hit compounds were further screened in dose-dependent ELISA autoubiquitination assays from 500 µM − 5 nM, with three NSC compounds for WWP1 (13151, 73735 & 85433) and only two NSC compounds for WWP2 (57103 & 217913) showing a dose-response (SI Table S4). […] To ensure the intended target was being inhibited and not the […] Uba1 (E1) and UbcH7 (E2) enzymes used in the catalytic cascade of the assay, a counter autoubiquitination screen was utilised. Upon counter-activity analysis, only with NSC-217913 did UbcH7 retain more than 90% activity and so this was selected as the sole validated hit compound from our inhibition screen (SI Table S6).

[4] = sample used directly from the NCI library, dose range 500 µM - 5 nM
[5] = synthesised compound, WWP1-L34H, 1% DMSO, 95% CI range in brackets
[6] = synthesised compound, WWP2-FL, 1% DMSO, 95% CI range in brackets

relative activity, single-shot autoubiquitination ([1]; 1% DMSO): some decrease in activity
Compound: CCOC(=O)Cc1cn2cc(Cl)ncc2n1 [Compound 2, Ethyl 6-chloroimidazo[1,2-a]pyrazine-2-acetate]

relative activity, single-shot autoubiquitination ([1]; 1% DMSO): some decrease in activity
Compound: CCOC(=O)Cc1cn2cc(Cl)nc(Cl)c2n1 [Compound 4, Ethyl 6,8-Dichloroimidazo[1,2-a]pyrazine-2-acetate]

relative activity, single-shot autoubiquitination ([1]; 1% DMSO): some decrease in activity
Compound: CCOC(=O)CSc1nc2nc(Cl)cnc2[nH]1 [Compound 5, Ethyl 2-({5-chloro-1H-imidazo[4,5-b]pyrazine-2-yl}sulfanyl)acetate]

IC50 [2, 4]: 33.3 µM | IC50 [2, 5]: 158 µM | relative autoubiquitination activity, single-shot ([1]; 1% DMSO): less than 50% | IC50 [1, 4]: < 100 µM and 69.8 µM | WWP2 IC50 ([1]; synthesised compound, WWP2-FL, 1% DMSO, 95% CI range in brackets, listed as 6/217913): Unstable^a | WWP2 IC50 ([1]; synthesised compound, WWP2-FL, 1% DMSO, 95% CI range in brackets, listed as NSC-217913): too weak to determine accurately | UbcH7 Activity [3]: 92.2 ± 1.1% | UbcH7 Activity ([3]; listed as NSC-217913): more than 90%
Compound: CCOC(=O)CSc1nc2nc(Cl)c(Cl)nc2[nH]1 [Compound 6, Ethyl 2-({5,6-dichloro-1H-imidazo[4,5-b]pyrazine-2-yl}sulfanyl)-acetate]

IC50 [1, 6]: 856 µM | WWP2 IC50 [1, 6]: only limited inhibition | UbcH7 Activity [3]: 94.2 ± 0.8%
Compound: N#CCSc1nc2nc(Cl)c(Cl)nc2[nH]1 [Compound 7, 2-({5,6-Dichloro-1H-imidazo[4,5-b]pyrazine-2-yl}sulfanyl)acetonitrile]

Compound: CCCC(C)Sc1nc2nc(Cl)c(Cl)nc2[nH]1 (stereo not drawn) [Compound 8, 2-({5,6-dichloro-1H-imidazo[4,5-b]pyrazine-2-yl}sulfanyl)pentane]
relative activity, single-shot autoubiquitination ([2]; 1% DMSO): rather small decrease in relative activity | relative activity, single-shot autoubiquitination ([1]; 1% DMSO): rather small decrease in relative activity

relative activity, single-shot autoubiquitination ([2]; 1% DMSO): failed to reach the activity threshold | IC50 [1, 6]: 622 µM
Compound: O=C(CSc1nc2nc(Cl)c(Cl)nc2[nH]1)N1CCOCC1 [Compound 9, 2-({5,6-dichloro-1H-imidazo[4,5-b]pyrazine-2-yl}sulfanyl)acetylmorpholine]

Compound: CCCC(=O)CSc1nc2nc(Cl)c(Cl)nc2[nH]1 [Compound 10]
relative activity, single-shot autoubiquitination ([2]; 1% DMSO): rather small decrease in relative activity | relative activity, single-shot autoubiquitination ([1]; 1% DMSO): rather small decrease in relative activity

relative activity, single-shot autoubiquitination ([2]; 1% DMSO): better single-shot data | relative activity, single-shot autoubiquitination ([1]; 1% DMSO): better single-shot data
Compound: CCOC(=O)CNC(=O)CSc1nc2nc(Cl)c(Cl)nc2[nH]1 [Compound 12, Ethyl 2-({5,6-dichloro-1H-imidazo[4,5-b]pyrazine-2-yl}sulfanyl)acetamidoacetate]

relative activity, single-shot autoubiquitination ([2]; 1% DMSO): failed to reach the activity threshold | IC50 [1, 6]: 603 µM
Compound: O=C(O)CCSc1nc2nc(Cl)c(Cl)nc2[nH]1 [Compound 13, 3-({5,6-Dichloro-1H-imidazo[4,5-b]pyrazine-2-yl}sulfanyl)propionic acid]

Compound: COC(=O)[C@H](COC(C)(C)C)NC(=O)CSc1nc2nc(Cl)c(Cl)nc2[nH]1 [Compound 14, Methyl 3-(tert-butoxy)-2(S)-[2-({5,6-dichloro-1H-imidazo[4,5-b]pyrazine-2-yl}sulfanyl)acetamido]propionate]
relative activity, single-shot autoubiquitination ([2]; 1% DMSO): rather small decrease in relative activity | relative activity, single-shot autoubiquitination ([1]; 1% DMSO): rather small decrease in relative activity

IC50 [2, 5]: 375 µM | IC50 [1, 6]: 666 µM | WWP2 IC50 [1, 6]: only weakly | UbcH7 Activity [3]: 93.0 ± 1.0% | melting point: 219.1 to 220.7 °C
Compound: O=C(O)CSc1nc2nc(Cl)c(Cl)nc2[nH]1 [Compound 15, ({5,6-dichloro-1H-imidazo[4,5-b]pyrazine-2-yl}sulfanyl)acetic acid]

relative activity, single-shot autoubiquitination ([2]; 1% DMSO): better single-shot data | relative activity, single-shot autoubiquitination ([1]; 1% DMSO): better single-shot data
Compound: O=C(O)CNC(=O)CSc1nc2nc(Cl)c(Cl)nc2[nH]1 [Compound 16, 2-({5,6-dichloro-1H-imidazo[4,5-b]pyrazine-2-yl}sulfanyl)acetamidoacetic acid]

UbcH7 Activity [3]: 88.8 ± 0.7%
Compound: O=C(CSc1nc2nc(Cl)c(Cl)nc2[nH]1)N[C@@H](CO)C(=O)O [Compound 17, 3-hydroxy-2(S)-[({5,6-dichloro-1H-imidazo[4,5-b]pyrazine-2-yl}sulfanyl)acetamido]propanoic acid]

relative activity, single-shot autoubiquitination ([2]; 1% DMSO): reducing relative activity
Compound: CCOC(=O)CSc1nc2nccnc2[nH]1 [Compound 20, Ethyl 2-({1H-imidazo[4,5-b]pyrazine}sulfanyl-2-yl)acetate]

relative activity, single-shot autoubiquitination ([2]; 1% DMSO): reducing relative activity
Compound: CCOC(=O)CSc1nc2cncnc2[nH]1 [Compound 21, Ethyl 2-({9H-imidazo[4,5-d]pyrimidine}sulfan-8-yl)acetate]

relative activity, single-shot autoubiquitination ([1]; 1% DMSO): some decrease in activity
Compound: Nc1nc2nc(Br)cnc2s1 [Compound 26, 5-bromothiazolo[4,5-b]pyrazine-2-amine]

relative autoubiquitination activity, single-shot ([2]; 1% DMSO): less than 50% | IC50 [2, 4]: 397 µM
Compound: O=C(/C=C/c1ccccc1Cl)c1ccc(O)cc1 [NSC-13151]

Compound: Cc1ccc(C=C2C(Cl)=C(Cl)C(Cl)=C2Cl)cc1 [NSC-26112]
relative autoubiquitination activity, single-shot ([1]; 1% DMSO): less than 50%

relative autoubiquitination activity, single-shot ([1]; 1% DMSO): less than 50% | IC50 [1, 4]: 513 µM
Compound: O=[N+]([O-])c1cc([N+](=O)[O-])c2cccnc2c1O [NSC-57103]

relative autoubiquitination activity, single-shot ([2]; 1% DMSO): less than 50% | IC50 [1, 4]: 49.1 µM | UbcH7 Activity [3]: 62.5 ± 2.4%
Compound: COc1cc(-c2ccc(Nc3ccccc3C(=O)O)c(OC)c2)ccc1Nc1ccccc1C(=O)O [NSC-73735]

relative autoubiquitination activity, single-shot ([2]; 1% DMSO): less than 50% | IC50 [2, 4]: < 100 µM and 92.4 µM | IC50 [1, 4]: 256 µM | UbcH7 Activity [3]: 7.5 ± 0.6%
Compound: CCc1oc2ccccc2c1C(=O)c1cc(Br)c(O)c(Br)c1 [NSC-85433]

relative autoubiquitination activity, single-shot ([2]; 1% DMSO): less than 50%
Compound: NC(=Nc1nc(-c2ccccn2)cc2ccccc12)c1ccccn1 [NSC-637578]

Compound: Ethyl 2-[({imidazo[4,5-c]pyridine}sulfan-2-yl-5N-(ethyl-2-acetate))]acetate [Compound 23]
relative activity, single-shot autoubiquitination ([2]; 1% DMSO): reducing relative activity
